Assay results published in patent US9394284B2, “Compounds act at multiple prostaglandin receptors giving a general anti-inflammatory response” (Allergan, Inc., priority 2010, dated 2016).

Columns and labels:
[1] = tested on: Dutch-belted pigmented rabbits; experiment: Arachidonate induced uveitis, anterior chamber leukocyte infiltration; type: in vivo, rabbit; conditions: topical, concentrations of 0.1, 0.3 and 1%; sodium arachidonate challenge; FIG. 12
Experimental: Arachidonate Induced Uveitis
The rational for this protocol is to use arachidonate to directly produce ocular anterior segment uveitis, as opposed to using lipopolysaccharide (LPS) to indirectly release arachidonic acid.
Conscious male or female Dutch-belted pigmented rabbits weighing 2.5-3 kg were used for all in vivo slit lamp studies. Four animals were employed per test group. The right eye of each animal receiving 35 μl of topically administered test and the contralateral left eye of each animal receiving 35 μl of topically administered vehicle (t=0 minutes), followed 30 minutes later by treatment with 35 μl of 0.5% sodium arachidonate onto the surface of both eyes (t=30 minutes). Both eyes were examined by slit lamp 60 minutes following sodium arachdionate challenge (t=90 minutes) at 16× magnification under both white light and blue light illumination at an approximate angle of 45° through 1 mm and 5 mm slit widths.
Measurement of Anterior Chamber Leukocyte Infiltration:
Anterior chamber leukocyte infiltration was measured using a numerical scoring system to estimate cell number per field defined by a 5 mm slit width: 0=no cells per field (no response); 1=1-10 cells per field (mild); 2=11-20 cells per field (moderate); 3=[…] cells per field (severe); 4=>50 cells per filed (florid). Results are reported as the mean score value±S.E.M.

Strains TA 98 and TA 100 = experiment: Ames Test for mutagenicity; type: cell-based
Experimental: The compounds of FIGS. 3 and 3(a) were tested for mutagenicity by means of the Ames Test using Strains TA 98 and TA 100. The results were negative for both compounds.

[2] = tested on: allergic conjunctival itch; experiment: Allergic conjunctival itch model; type: in vivo; conditions: FIGS. 10 and 11
Experimental: The compounds of this invention were tested according to the method described in “Characterization of Receptor Subtypes Involved in Prostanoid-Induced Conjunctival Pruritis and Their Role in Mediating Conjunctival Itching”, Vol. 279, No. 1, (JPET) 279, 137-142' 1996 for their efficacy in alleviating itch.

[3] = target: T1, human prostanoid FP receptor (Homo sapiens, UniProt P43088); experiment: FLIPR Ca2+ signaling antagonist assay, FP receptor stable cell line; type: cell-based; conditions: HEK-293 EBNA stable cell line; standard agonist 17-phenyl-PGF2α; NA = inactive (no antagonism or Kb 10,000 nM); PAg, Ag not defined
T1 construct: expressed in transfected cells
T1 sequence (P43088 whole entry): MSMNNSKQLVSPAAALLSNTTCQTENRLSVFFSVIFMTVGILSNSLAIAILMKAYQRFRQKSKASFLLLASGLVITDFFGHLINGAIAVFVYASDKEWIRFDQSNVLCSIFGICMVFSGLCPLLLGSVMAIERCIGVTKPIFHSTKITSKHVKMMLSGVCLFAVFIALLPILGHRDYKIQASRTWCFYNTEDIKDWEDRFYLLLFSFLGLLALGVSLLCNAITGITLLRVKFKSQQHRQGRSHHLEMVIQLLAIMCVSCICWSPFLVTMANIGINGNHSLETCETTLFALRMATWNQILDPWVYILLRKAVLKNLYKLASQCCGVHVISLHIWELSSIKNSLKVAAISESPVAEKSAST
Method in brief: (§1)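 Peak Fluo-4 fluorescence (ex 470–495, em 515–575 nm) was read for 3.5 min on FLIPR after agonist injection and expressed relative to 10^−6 M standard agonist. Cells were HEK-293 EBNA transfectants. Test compound was added 4.5 min beforehand at 0.1–30 μM, or 0.067–1 μM for TP.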

[4] = target: T2, human prostanoid DP1 receptor (Homo sapiens, UniProt Q13258); experiment: FLIPR Ca2+ signaling antagonist assay, DP1 receptor stable cell line; type: cell-based; conditions: HEK-293 EBNA stable cell line; standard agonist BW 245C; NA = inactive (no antagonism or Kb 10,000 nM); PAg, Ag not defined
T2 construct: expressed in transfected cells
T2 sequence (Q13258 1-359): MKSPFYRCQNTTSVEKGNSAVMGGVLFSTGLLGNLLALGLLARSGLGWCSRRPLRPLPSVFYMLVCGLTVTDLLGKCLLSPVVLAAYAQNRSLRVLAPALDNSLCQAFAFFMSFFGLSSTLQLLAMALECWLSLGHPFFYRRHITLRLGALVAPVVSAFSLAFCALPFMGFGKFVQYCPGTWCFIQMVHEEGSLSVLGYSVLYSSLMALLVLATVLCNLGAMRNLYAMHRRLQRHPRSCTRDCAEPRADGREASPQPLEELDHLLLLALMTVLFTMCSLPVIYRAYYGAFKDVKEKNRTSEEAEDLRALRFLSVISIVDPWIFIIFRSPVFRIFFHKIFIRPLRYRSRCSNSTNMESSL
Method in brief: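 Functional antagonism measured by Ca2+ flux at 37 °C. Agonist ranges were 10^−11 to 10^−5 M, or 10^−12 to 10^−6 M for TP with U-46619; PGE2 for EP1/EP3, BW 245C for DP1. Compound spanned 0.1–30 μM except TP, 0.067–1 μM.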

[5] = target: T3, human prostanoid EP4 receptor (Homo sapiens, UniProt P35408); experiment: FLIPR Ca2+ signaling antagonist assay, EP4 receptor stable cell line; type: cell-based; conditions: HEK-293 EBNA stable cell line; standard agonist PGE2; NA = inactive (no antagonism or Kb 10,000 nM); PAg, Ag not defined
T3 construct: expressed in transfected cells
T3 sequence (P35408 whole entry): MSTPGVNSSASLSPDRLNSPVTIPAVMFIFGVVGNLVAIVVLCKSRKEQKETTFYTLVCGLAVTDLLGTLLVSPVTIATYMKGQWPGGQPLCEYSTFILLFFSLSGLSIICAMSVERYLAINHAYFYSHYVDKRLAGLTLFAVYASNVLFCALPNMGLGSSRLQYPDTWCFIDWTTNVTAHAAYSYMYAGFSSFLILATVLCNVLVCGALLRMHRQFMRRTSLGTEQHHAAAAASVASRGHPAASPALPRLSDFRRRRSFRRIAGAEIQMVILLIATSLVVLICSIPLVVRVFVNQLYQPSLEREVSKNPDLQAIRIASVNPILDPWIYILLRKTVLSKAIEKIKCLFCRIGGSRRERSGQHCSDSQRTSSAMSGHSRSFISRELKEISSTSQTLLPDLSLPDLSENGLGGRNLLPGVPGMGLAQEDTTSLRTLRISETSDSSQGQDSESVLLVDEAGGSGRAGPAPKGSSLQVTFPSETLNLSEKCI
Method in brief: as §1

[6] = target: T4, human prostanoid TP receptor (Homo sapiens, UniProt P21731); experiment: FLIPR Ca2+ signaling antagonist assay, TP receptor stable cell line; type: cell-based; conditions: HEK-293 EBNA stable cell line; standard agonist U-46619; NA = inactive (no antagonism or Kb 10,000 nM); PAg, Ag not defined
T4 construct: expressed in transfected cells
T4 sequence (P21731 1-343): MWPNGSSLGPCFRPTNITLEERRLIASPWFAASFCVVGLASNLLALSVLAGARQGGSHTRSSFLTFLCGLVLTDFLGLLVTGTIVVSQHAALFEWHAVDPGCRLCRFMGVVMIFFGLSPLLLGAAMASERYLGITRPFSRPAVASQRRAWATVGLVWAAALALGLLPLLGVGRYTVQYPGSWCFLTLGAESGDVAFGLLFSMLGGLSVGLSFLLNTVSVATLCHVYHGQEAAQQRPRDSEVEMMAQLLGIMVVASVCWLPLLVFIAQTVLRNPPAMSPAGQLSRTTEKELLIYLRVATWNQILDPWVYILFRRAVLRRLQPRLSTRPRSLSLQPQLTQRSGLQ
Method in brief: (§2)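 HEK-293 EBNA cells stably expressing receptor (EP3 co-expressed with chimeric Gqi; EP1, IP, TP without exogenous G protein), Fluo-4 loaded, read on FLIPR at 37° C. Antagonist added 4.5 min before standard agonist (EP1/EP3 PGE2, IP cicaprost 10^−11–10^−5 M; TP U-46619 10^−12–10^−6 M); antagonist 0.1–30 μM, TP 0.067–1 μM; peak fluorescence relative to 10^−6 M agonist.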

[7] = target: T5, human prostanoid EP2 receptor (Homo sapiens, UniProt P43116); experiment: FLIPR Ca2+ signaling antagonist assay, EP2 receptor stable cell line; type: cell-based; conditions: HEK-293 EBNA stable cell line; standard agonist PGE2; NA = inactive (no antagonism or Kb 10,000 nM); PAg, Ag not defined
T5 construct: expressed in transfected cells
T5 sequence (P43116 whole entry): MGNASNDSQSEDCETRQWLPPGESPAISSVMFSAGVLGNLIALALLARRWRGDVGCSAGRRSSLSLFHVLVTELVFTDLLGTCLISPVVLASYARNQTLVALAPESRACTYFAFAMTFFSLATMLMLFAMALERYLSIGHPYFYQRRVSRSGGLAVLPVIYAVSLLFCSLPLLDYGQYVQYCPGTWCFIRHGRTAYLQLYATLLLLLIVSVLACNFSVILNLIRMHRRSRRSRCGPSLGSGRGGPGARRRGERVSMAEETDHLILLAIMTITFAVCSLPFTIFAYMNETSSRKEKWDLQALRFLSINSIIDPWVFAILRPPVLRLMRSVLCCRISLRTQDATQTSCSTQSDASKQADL
Experimental: The above compounds were tested for PG antagonist activity as follows using human recombinant prostanoid receptor (DP1, EP1-4, FP, IP and TP) stable cell lines:
In order to measure the response of Gs and Gi coupled prostanoid receptors as a Ca^2+ signal, chimeric G protein cDNAs were used. Stable cell lines over-expressing human prostanoid DP1, EP1-4, FP, IP, and TP receptors were established as follows:
Briefly, human prostanoid DP1, EP2, and EP4 receptor cDNAs were co-transfected with chimeric Gqs cDNA containing a haemagglutanin (HA) epitope; human prostanoid EP3 receptors were co-transfected with chimeric Gqi-HA; human EP1, FP, IP, and TP receptor cDNAs were expressed with no exogenous G-proteins. Gqs and Gqi chimeric cDNAs (Molecular Devices, Sunnyvale, Calif., U.S.A.), as well as cDNAs of prostanoid receptors, were cloned into a pCEP4 vector with a hygromycin B selection marker. Transfection into HEK-293 EBNA (Epstein-Barr virus nuclear antigen) cells was achieved by the FuGENE 6 transfection Reagent (Roche Applied Science, Indianapolis, Ind., USA). Stable transfectants were selected according to hygromycin resistance. Because Gqs and Gqi contained an HA epitope, G-protein expression was detected by Western blotting analysis using anti-mouse HA monoclonal antibody and horseradish peroxidase (HRP)-conjugated secondary antibody, while functional expression of prostanoid receptors was detected by FLIPR screening (Matias et al., 2004). These stable cell lines were validated using previously published antagonists at 10 μM against serial dilutions of standard agonists by FLIPR functional assays for Ca^2+ Signaling (as described below).
Ca^2+ signaling studies were performed using a FLIPR TETRA system (Molecular Devices, Sunnyvale, Calif., USA) in the 384-format. This is a high-throughput instrument for cell-based assays to monitor Ca^2+ signaling associated with GPCRs and ion channels. Cells were seeded at a density of 5×10^4 cells/well in BioCoat poly-D-lysine coated, black wall, clear bottom 384-well plates (BD Biosciences, Franklin lakes, NJ, USA) and allowed to attach overnight in an incubator at 37° C. The cells were then washed twice with HBSS-HEPES buffer (Hanks' balanced salt solution without bicarbonate and phenol red, 20 mM HEPES, pH 7.4) using an ELx405 Select CW Microplate Washer (BioTek, Winooski, Vt., USA). After 60 min of dye-loading in the dark using the Ca^2+-sensitive dye Fluo-4AM (Invitrogen, Carlsbad, Calif., USA), at a final concentration of 2×10^−6M, the plates were washed 4 times with HBSS-HEPES buffer to remove excess dye and leaving 50 μl of buffer in each well. The plates were then placed in the FLIPR TETRA instrument and allowed to equilibrate at 37° C. AGN-211377 was added in a 25 μl volume to each well to give final concentrations of 0.1 μM, 0.3 μM, 1 μM, 3 μM, 10 μM, and 30 μM; or 0.067 μM, 0.1 μM, 0.2 μM, 0.3 μM, 0.67 μM, and 1 μM for cells over-expressing TP receptors. After 4.5 minutes, a 7-point serial dilution of the standard agonist for the corresponding receptor, in a 25 μl volume was injected at the final concentrations from 10^−11M to 10^−5M in 10-fold serial dilution increments for cells expressing human recombinant DP1, EP1, EP2, EP3, EP4, FP, and IP receptors. The dose range for the standard agonist for human recombinant TP receptors was from 10^−12 M to 10^−6 M. HBSS-HEPES buffer was used as the negative control for the standard agonists. Cells were excited with LED (light emitting diode) excitation at 470-495 nm and emission was measured through an emission filter at 515-575 nm. Assay plates were read for 3.5 minutes using the FLIPR^TETRA. The peak increase in fluorescence intensity was recorded for each well. On each plate, negative controls, dose response of positive controls, and co-treatments of antagonist-agonist for each dose were in triplicates.
Standard agonists were as follows: DP=BW 245C, EP1-EP4=PGE2, FP=17-phenyl-PGF2α, IP=Cicaprost, and TP=U-46619. […]

[8] = target: T6, human prostanoid IP receptor (Homo sapiens, UniProt P43119); experiment: FLIPR Ca2+ signaling antagonist assay, IP receptor stable cell line; type: cell-based; conditions: HEK-293 EBNA stable cell line; standard agonist Cicaprost; NA = inactive (no antagonism or Kb 10,000 nM); PAg, Ag not defined
T6 construct: expressed in transfected cells
T6 sequence (P43119 whole entry): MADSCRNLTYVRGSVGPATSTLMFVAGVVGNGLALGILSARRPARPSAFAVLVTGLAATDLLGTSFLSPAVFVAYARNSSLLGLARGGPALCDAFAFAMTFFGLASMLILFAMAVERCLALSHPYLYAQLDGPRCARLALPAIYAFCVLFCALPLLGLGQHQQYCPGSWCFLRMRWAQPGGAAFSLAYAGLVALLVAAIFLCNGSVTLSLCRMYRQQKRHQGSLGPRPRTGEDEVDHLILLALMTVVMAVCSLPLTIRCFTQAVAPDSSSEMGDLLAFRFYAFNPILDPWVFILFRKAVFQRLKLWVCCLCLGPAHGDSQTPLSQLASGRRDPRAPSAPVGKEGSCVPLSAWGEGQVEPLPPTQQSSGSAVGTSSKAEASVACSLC
Method in brief: as §2

[9] = target: T7, human prostanoid EP1 receptor (Homo sapiens, UniProt P34995); experiment: FLIPR Ca2+ signaling antagonist assay, EP1 receptor stable cell line; type: cell-based; conditions: HEK-293 EBNA stable cell line; standard agonist PGE2; NA = inactive (no antagonism or Kb 10,000 nM); PAg, Ag not defined
T7 construct: expressed in transfected cells
T7 sequence (P34995 1-402): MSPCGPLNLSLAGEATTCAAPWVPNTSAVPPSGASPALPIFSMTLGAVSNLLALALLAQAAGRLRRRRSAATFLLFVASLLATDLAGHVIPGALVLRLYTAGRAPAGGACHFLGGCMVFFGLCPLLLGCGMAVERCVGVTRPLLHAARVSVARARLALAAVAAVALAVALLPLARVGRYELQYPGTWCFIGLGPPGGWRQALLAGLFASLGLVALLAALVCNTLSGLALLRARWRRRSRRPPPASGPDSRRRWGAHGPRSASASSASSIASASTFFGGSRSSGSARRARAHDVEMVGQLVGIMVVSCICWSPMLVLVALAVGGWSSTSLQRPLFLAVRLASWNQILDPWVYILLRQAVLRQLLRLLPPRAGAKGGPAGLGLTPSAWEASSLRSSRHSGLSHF
Method in brief: as §2

| Kb [4] [nM] | SMILES | anterior chamber leukocyte infiltration (uveitis model) [1] | mutagenicity (Ames Test) (Strains TA 98 and TA 100) | number of itch-scratch episodes [2] | Kb [3] [nM] | DP1 (FLIPR) Kb [4] | Kb [5] [nM] | Kb [6] [nM] | Kb [7] [nM] | Kb [8] [nM] | Kb [9] [nM] |
| --- | --- | --- | --- | --- | --- | --- | --- | --- | --- | --- | --- |
|  | CCC(CC)COc1ccc(Br)cc1Cn1nc(CCC(=O)O)cc1C [Example 3, 3-{1-[5-Bromo-2-(2-ethyl-butoxy)-benzyl]-5-methyl-1H-pyrazol-3-yl}-propionic acid] | dose dependent response | negative | significantly lower number of itch-scratch episodes |  |  |  |  |  |  |  |
|  | Cc1cc(CCC(=O)O)nn1Cc1cc(Cl)ccc1OCCC(C)C [Example 21, 3-[1-(5-Chloro-2-(3-methylbutoxy)benzyl)-5-methyl-1H-pyrazol-3-yl]-propionic acid] |  |  |  | 225 | PAg | 1000 | 30 | 8200 | 5530 | 350 |
| 110 | Cc1cc(CCC(=O)O)nn1Cc1cc(Br)ccc1OCC1CCC1 [Example 12, 3-[1-(5-Bromo-2-(2-cyclobutylmethoxy)-benzyl)-5-methyl-1H-pyrazol-3-yl]-propionic acid] |  |  |  | 30 |  | 500 | 30 | 1700 | 3600 | 30 |
